How the values were obtained:
BRD7 = molecular target: T1, BRD7 (Homo sapiens, UniProt Q9NPI1); assay: BRD7 degradation, HiBiT-BRD7 KI HEK293 (LgBiT) cells, NanoGlo Lytic Endpoint assay (Assay Protocol 1); format: cell-based; conditions: Table 5, assay protocol 1; for Dmax: HEK293
T1 construct: HiBiT-BRD7 KI HEK293 (LgBiT) Cells (Promega CS3023410); host or cells: HEK293 (LgBiT), HiBiT knock-in at the BRD7 locus
T1 sequence (Q9NPI1 1-651): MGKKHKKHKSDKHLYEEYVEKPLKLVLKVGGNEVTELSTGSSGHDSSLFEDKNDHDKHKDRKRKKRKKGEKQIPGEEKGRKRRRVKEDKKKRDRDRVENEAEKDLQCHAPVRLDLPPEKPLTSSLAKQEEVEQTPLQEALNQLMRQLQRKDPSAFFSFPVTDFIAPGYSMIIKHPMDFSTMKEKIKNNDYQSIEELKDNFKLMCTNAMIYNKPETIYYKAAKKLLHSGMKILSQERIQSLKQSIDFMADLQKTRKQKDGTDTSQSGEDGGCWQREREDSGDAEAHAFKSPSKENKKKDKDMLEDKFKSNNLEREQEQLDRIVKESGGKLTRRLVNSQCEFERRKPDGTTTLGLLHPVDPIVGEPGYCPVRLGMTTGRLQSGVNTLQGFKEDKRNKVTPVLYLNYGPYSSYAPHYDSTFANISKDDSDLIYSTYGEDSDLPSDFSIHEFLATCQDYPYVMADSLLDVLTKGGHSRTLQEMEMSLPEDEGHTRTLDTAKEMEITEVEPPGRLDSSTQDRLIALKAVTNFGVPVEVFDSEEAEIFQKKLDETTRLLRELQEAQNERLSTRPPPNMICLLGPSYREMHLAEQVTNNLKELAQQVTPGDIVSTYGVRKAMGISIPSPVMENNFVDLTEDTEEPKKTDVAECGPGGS
Method: HiBiT-BRD9 KI HEK293 (LgBiT) Cells (Promega CS3023412) were seeded at 8000 cells per well (38 μL) in sterile white bottom 384 well plates (Invitrogen 164610 or Greiner 781080) and incubated overnight at 37° C. with 5% CO2. The next day, compounds were prepared at 1000× final concentration in DMSO and diluted 1:100 in media (DMEM PAN Biotech P04-03550+10% FBS ATCC 302025). […] The lytic buffer was equilibrated to room temperature for 10-15 min before lytic reagent was prepared by adding substrate (1:50) and LgBit protein (1:100) in lytic buffer. 40 μL lytic reagent mix was added to each well of the cel plate and plates were centrifuged briefly at ˜50g. Plates were incubated with shaking (350 RPM) for 12-24 min before reading using the LUM plus module of a BMG Pherastar FSX. Data was analysed using Dotmatics software and % BRD9 remaining was calculated by normalisation to average data from high and low control wells (DMSO treated cels and no cells respectively).
BRD7 degradation was determined in line with the procedure as outlined above for BRD9, with the exception that HiBiT-BRD7 KI HEK293 (LgBiT) Cells (Promega CS3023410) were seeded at 8000 cells per well (CPW) (36 uL) in sterile white bottom 384 well plates (Invitrogen 164610 or Greiner 781080) and incubated overnight at 37° C. with 5% CO2.

BRD4 = molecular target: T2, BRD4 (Homo sapiens, UniProt O60885); assay: BRD4 degradation, HiBiT-BRD4 HEK293 CRISPR CPM cells, NanoGlo Lytic Endpoint assay (Assay Protocol 1); format: cell-based; conditions: for Dmax: HEK293, Table 5; for DC50: Table 5
T2 construct: HiBiT-BRD4 HEK293 CRISPR CPM (Promega CS302312); host or cells: HEK293, CRISPR-edited (HiBiT at the BRD4 locus)
Method: HiBiT-BRD9 KI HEK293 (LgBiT) Cells (Promega CS3023412) were seeded at 8000 cells per well (38 μL) in sterile white bottom 384 well plates (Invitrogen 164610 or Greiner 781080) and incubated overnight at 37° C. with 5% CO2. The next day, compounds were prepared at 1000× final concentration in DMSO and diluted 1:100 in media (DMEM PAN Biotech P04-03550+10% FBS ATCC 302025). 4 μL compound was added to each well of the cell plate and incubated for 6 h at 37° C. with 5% CO2 BRD9 expression was quantified using the NanoGlo Lytic Endpoint assay (Promega N3050). The lytic buffer was equilibrated to room temperature for 10-15 min before lytic reagent was prepared by adding substrate (1:50) and LgBit protein (1:100) in lytic buffer. 40 μL lytic reagent mix was added to each well of the cel plate and plates were centrifuged briefly at ˜50g. Plates were incubated with shaking (350 RPM) for 12-24 min before reading using the LUM plus module of a BMG Pherastar FSX. Data was analysed using Dotmatics software and % BRD9 remaining was calculated by normalisation to average data from high and low control wells (DMSO treated cels and no cells respectively).
[…] was determined in line with the procedure as outlined above for BRD9, HiBiT-BRD4 HEK293 CRISPR CPM (Promega CS302312) were seeded at 8000 CPW (36 uL) in sterile white bottom 384 well plates (Invitrogen 164610 or Greiner 781080) and incubated overnight at 37° C. with 5% CO2.

## COc1cc(-c2cn(C)c(=O)c(C)c2C)cc(OC)c1CN1CC2CC1CN2C(=O)/C(C#N)=C/C(C)(C)C (mixture of isomers) [BRD9b]
BRD7
  Dmax: < 25%
  DC50: > 1000 nM
BRD4
  Dmax: > 75%
  DC50: 25 to 1000 nM

## COc1cc(-c2cn(C)c(=O)c(C)c2C)cc(OC)c1CN1CC2CC1CN2C(=O)/C(C#N)=C/c1nccs1 (mixture of isomers) [BRD9i, (E/Z)-2-(5-(2,6-dimethoxy-4-(1,4,5-trimethyl-6-oxo-1,6-dihydropyridin-3-yl)benzyl)-2,5-diazabicyclo[2.2.1]heptane-2-carbonyl)-3-(thiazol-2-yl)acrylonitrile]
BRD7
  Dmax: 25 to 40%
  DC50: > 1000 nM
BRD4
  Dmax: 40 to 70%
  DC50: > 1000 nM

## COc1cc(-c2cn(C)c(=O)c(C)c2C)cc(OC)c1CN1C2CC1CN(C(=O)/C(C#N)=C/c1cccc(Br)n1)C2 (mixture of isomers) [BRD9o, (E/Z)-3-(6-bromopyridin-2-yl)-2-(6-(2,6-dimethoxy-4-(1,4,5-trimethyl-6-oxo-1,6-dihydropyridin-3-yl)benzyl)-3,6-diazabicyclo[3.1.1]heptane-3-carbonyl)acrylonitrile]
BRD7
  Dmax: 25 to 40%
  DC50: > 1000 nM
BRD4
  Dmax: 25 to 40%
  DC50: > 1000 nM

## COc1cc(-c2cn(C)c(=O)c(C)c2C)cc(OC)c1CN1CCN(C(=O)/C(C#N)=C/C(C)(C)C)CC1 [BRD9a, (E/Z)-2-(4-(2,6-dimethoxy-4-(1,4,5-trimethyl-6-oxo-1,6-dihydropyridin-3-yl)benzyl)piperazine-1-carbonyl)-4,4-dimethylpent-2-enenitrile]
BRD7
  Dmax: < 25%
  DC50: > 1000 nM
BRD4
  Dmax: > 75%
  DC50: 25 to 1000 nM

## COc1cc(-c2cn(C)c(=O)c(C)c2C)cc(OC)c1CN(C)C(=O)/C(C#N)=C/C(C)(C)C [BRD9ac, (E/Z)-2-cyano-N-(2,6-dimethoxy-4-(1,4,5-trimethyl-6-oxo-1,6-dihydropyridin-3-yl)benzyl)-N,4,4-trimethylpent-2-enamide]
BRD7
  Dmax: 70 to 75%
  DC50: 25 to 1000 nM
BRD4
  Dmax: 25 to 40%
  DC50: > 1000 nM

## COc1cc(-c2cn(C)c(=O)c(C)c2C)cc(OC)c1CN1CCCN(C(=O)/C(C#N)=C/C(C)(C)C)CC1 [BRD9c, (E/Z)-2-(4-(2,6-dimethoxy-4-(1,4,5-trimethyl-6-oxo-1,6-dihydropyridin-3-yl)benzyl)-1,4-diazepane-1-carbonyl)-4,4-dimethylpent-2-enenitrile]
BRD7
  Dmax: < 25%
  DC50: > 1000 nM
BRD4
  Dmax: > 75%
  DC50: 25 to 1000 nM

## COc1cc(-c2cn(C)c(=O)c(C)c2C)cc(OC)c1CN(C)C1CCN(C(=O)/C(C#N)=C/C(C)(C)C)CC1 [BRD9d, (E/Z)-2-(4-((2,6-dimethoxy-4-(1,4,5-trimethyl-6-oxo-1,6-dihydropyridin-3-yl)benzyl)(methyl)amino)piperidine-1-carbonyl)-4,4-dimethylpent-2-enenitrile]
BRD7
  Dmax: < 25%
  DC50: > 1000 nM
BRD4
  Dmax: < 25%
  DC50: > 1000 nM

## COc1cc(-c2cn(C)c(=O)c(C)c2C)cc(OC)c1CN1CCN(C(=O)/C(C#N)=C/C(C)(C)C)C2(CC2)C1 [BRD9e, (E/Z)-2-(7-(2,6-dimethoxy-4-(1,4,5-trimethyl-6-oxo-1,6-dihydropyridin-3-yl)benzyl)-4,7-diazaspiro[2,5]octane-4-carbonyl)-4,4-dimethylpent-2-enenitrile]
BRD7
  Dmax: < 25%
  DC50: > 1000 nM
BRD4
  Dmax: > 75%
  DC50: 25 to 1000 nM

## COc1cc(-c2cn(C)c(=O)c(C)c2C)cc(OC)c1CN1CCN(C(=O)/C(C#N)=C/c2cccc(Br)n2)CC1 [BRD9h, (E/Z)-3-(6-bromopyridin-2-yl)-2-(4-(2,6-dimethoxy-4-(1,4,5-trimethyl-6-oxo-1,6-dihydropyridin-3-yl)benzyl)piperazine-1-carbonyl)acrylonitrile]
BRD7
  Dmax: 25 to 40%
  DC50: > 1000 nM
BRD4
  Dmax: 40 to 70%
  DC50: 25 to 1000 nM
